Values joined by “and” are separate entries in the source; they are usually repeats but may differ in a detail not shown here. Equal entries are not always repeated.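 Five compound concentrations were applied to cells in 96-well plates for 48 hours; endpoints were derived by simple linear interpolation of the resulting dose-response curve. GI50 = concentration required for 50% inhibition of growth.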 Active and inactive are the calls of the source. Cut-off read from the data, not from the text of the source: active = GI50 up to about 1.1 µM and inactive = higher.
Experiments:
Test in all cases: NCI-60 cell line screen, 48 h
Malme-3M = test system: Malme-3M
EKVX = test system: EKVX
NCI-H226 = test system: NCI-H226
ACHN = test system: ACHN
TK-10 = test system: TK-10
786-0 = test system: 786-0
OVCAR-3 = test system: OVCAR-3
Hs-578T = test system: Hs-578T
MDA-N = test system: MDA-N
COLO 205 = test system: COLO 205
NCI/ADR-RES = test system: NCI/ADR-RES
SNB-75 = test system: SNB-75
SR = test system: SR
SK-MEL-28 = test system: SK-MEL-28
MDA-MB-435 = test system: MDA-MB-435
RPMI-8226 = test system: RPMI-8226
OVCAR-4 = test system: OVCAR-4
NCI-H23 = test system: NCI-H23
OVCAR-8 = test system: OVCAR-8
SNB-19 = test system: SNB-19
MOLT-4 = test system: MOLT-4
T47D = test system: T47D
MCF7 = test system: MCF7
IGROV-1 = test system: IGROV-1
U-251 = test system: U-251
LOX IMVI = test system: LOX IMVI
SN12C = test system: SN12C
A549 = test system: A549
HCC 2998 = test system: HCC 2998
SK-OV-3 = test system: SK-OV-3
SF-539 = test system: SF-539
HCT-116 = test system: HCT-116
SF-295 = test system: SF-295
A498 = test system: A498
K562 = test system: K562
SK-MEL-2 = test system: SK-MEL-2
SW-620 = test system: SW-620
SF-268 = test system: SF-268
CCRF-CEM = test system: CCRF-CEM
HOP-92 = test system: HOP-92
HT-29 = test system: HT-29
HOP-62 = test system: HOP-62
PC-3 = test system: PC-3
HCT-15 = test system: HCT-15
KM12 = test system: KM12
UACC-62 = test system: UACC-62
HL-60 = test system: HL-60
NCI-H460 = test system: NCI-H460
SK-MEL-5 = test system: SK-MEL-5
RXF 393 = test system: RXF 393
DU-145 = test system: DU-145

How did the GI50 (Malme-3M) turn out when `CCOc1c(Br)cc(Br)cc1C=C(C#N)C#N` was run?
Its GI50 is > 10 µM (inactive).

And the GI50 (EKVX)?
The GI50 was > 10 µM (inactive).

And the GI50 (NCI-H226)?
Its GI50 is 690 nM (active).

What about the GI50 (ACHN) of the same compound?
The GI50 was 2.77 µM (inactive).

And the GI50 (TK-10)?
Its GI50 is 5.43 µM (inactive).

And the GI50 (786-0)?
Its GI50 is 7.01 µM (inactive).

What about the GI50 (OVCAR-3) of the same compound?
Its GI50 is > 10 µM (inactive).

And the GI50 (Hs-578T)?
Its GI50 is 3.67 µM (inactive).

And the GI50 (MDA-N)?
Its GI50 is 1.83 µM (inactive).

And the GI50 (COLO 205)?
The GI50 was > 10 µM (inactive).

What about the GI50 (NCI/ADR-RES) of the same compound?
Its GI50 is 1.27 µM (inactive).

And the GI50 (SNB-75)?
The GI50 was 7.62 µM (inactive).

And the GI50 (SR)?
The GI50 was 916 nM (active).

And the GI50 (SK-MEL-28)?
Its GI50 is 8.26 µM (inactive).

And the GI50 (MDA-MB-435)?
Its GI50 is 4.18 µM (inactive).

And the GI50 (RPMI-8226)?
The GI50 was 942 nM (active).

What about the GI50 (OVCAR-4) of the same compound?
The GI50 was > 10 µM (inactive).

And the GI50 (NCI-H23)?
Its GI50 is > 10 µM (inactive).

What about the GI50 (OVCAR-8) of the same compound?
The GI50 was 3.42 µM (inactive).

What about the GI50 (SNB-19) of the same compound?
Its GI50 is 5.73 µM (inactive).

What about the GI50 (MOLT-4) of the same compound?
The GI50 was 2.05 µM (inactive).

And the GI50 (T47D)?
The GI50 was > 10 µM (inactive).

And the GI50 (MCF7)?
The GI50 was 6.21 µM (inactive).

And the GI50 (IGROV-1)?
The GI50 was 4.29 µM (inactive).

And the GI50 (U-251)?
The GI50 was 3.52 µM (inactive).

What about the GI50 (LOX IMVI) of the same compound?
The GI50 was 1.66 µM (inactive).

What about the GI50 (SN12C) of the same compound?
Its GI50 is 6.27 µM (inactive).

What about the GI50 (A549) of the same compound?
The GI50 was > 10 µM (inactive).

What about the GI50 (HCC 2998) of the same compound?
The GI50 was > 10 µM (inactive).

And the GI50 (SK-OV-3)?
The GI50 was > 10 µM (inactive).

What about the GI50 (SF-539) of the same compound?
Its GI50 is 3.36 µM (inactive).

And the GI50 (HCT-116)?
The GI50 was 405 nM (active).

What about the GI50 (SF-295) of the same compound?
Its GI50 is 7.53 µM (inactive).

What about the GI50 (A498) of the same compound?
The GI50 was 1.49 µM (inactive).

What about the GI50 (K562) of the same compound?
Its GI50 is 1.16 µM (inactive).

And the GI50 (SK-MEL-2)?
Its GI50 is > 10 µM (inactive).

What about the GI50 (SW-620) of the same compound?
Its GI50 is 2.23 µM (inactive).

What about the GI50 (SF-268) of the same compound?
Its GI50 is 5.82 µM (inactive).

And the GI50 (CCRF-CEM)?
Its GI50 is 1.18 µM (inactive).

And the GI50 (HOP-92)?
Its GI50 is 4.19 µM (inactive).

And the GI50 (HT-29)?
Its GI50 is > 10 µM (inactive).

What about the GI50 (HOP-62) of the same compound?
The GI50 was > 10 µM (inactive).

And the GI50 (PC-3)?
The GI50 was > 10 µM (inactive).

What about the GI50 (HCT-15) of the same compound?
The GI50 was 2.96 µM.

And the GI50 (KM12)?
The GI50 was 5.93 µM (inactive).

And the GI50 (UACC-62)?
Its GI50 is 6.08 µM (inactive).

What about the GI50 (HL-60) of the same compound?
The GI50 was 227 nM (active).

What about the GI50 (NCI-H460) of the same compound?
The GI50 was > 10 µM (inactive).

And the GI50 (SK-MEL-5)?
The GI50 was 3.61 µM (inactive).

And the GI50 (RXF 393)?
The GI50 was > 10 µM (inactive).

Which results are given for `CN1C2C=CC(=O)C1C(C#N)C2` (centres undefined)?
GI50 (Malme-3M): 24 µM (inactive) and 40 µM (inactive); GI50 (ACHN): 72.3 µM (inactive) and 52.5 µM (inactive); GI50 (TK-10): > 100 µM (inactive) and 66.4 µM (inactive); GI50 (DU-145): 68.7 µM (inactive) and 40 µM (inactive); GI50 (OVCAR-3): 62.1 µM (inactive) and 35.4 µM (inactive); GI50 (Hs-578T): > 100 µM (inactive) and 85.3 µM (inactive); GI50 (MDA-N): 29.1 µM (inactive) and 41.3 µM (inactive); GI50 (NCI/ADR-RES): 30.5 µM (inactive) and 28.2 µM (inactive); GI50 (MDA-MB-435): 29.5 µM (inactive) and 42.9 µM (inactive); GI50 (NCI-H23): 32.4 µM (inactive) and 22.3 µM (inactive); GI50 (SNB-19): 77.8 µM (inactive); GI50 (MOLT-4): 30.1 µM (inactive) and 29.5 µM (inactive); GI50 (T47D): 21.1 µM (inactive) and 39.2 µM (inactive); GI50 (MCF7): 31.8 µM (inactive) and 35.8 µM (inactive); GI50 (IGROV-1): 56 µM (inactive); GI50 (SN12C): 59.7 µM (inactive) and 35.8 µM (inactive); GI50 (A549): 66.4 µM (inactive) and 34.5 µM (inactive); GI50 (SK-OV-3): > 100 µM (inactive) and 83.8 µM (inactive); GI50 (SF-539): 28.4 µM (inactive) and 36.3 µM (inactive); GI50 (HCT-116): 33.5 µM (inactive) and 18.9 µM (inactive); GI50 (A498): 49.5 µM (inactive) and 46.1 µM (inactive); GI50 (K562): 36.1 µM (inactive) and 19.3 µM (inactive); GI50 (SW-620): 28.7 µM (inactive) and 51.8 µM (inactive); GI50 (SF-268): 95.9 µM (inactive) and 75.5 µM (inactive); GI50 (CCRF-CEM): 23.2 µM (inactive) and 19 µM (inactive); GI50 (HOP-92): 9.82 µM (inactive) and 16.4 µM (inactive); GI50 (HOP-62): 94.4 µM (inactive); GI50 (PC-3): > 100 µM (inactive); GI50 (HCT-15): 30.5 µM and 24.1 µM; GI50 (KM12): 42.9 µM (inactive) and 38.5 µM (inactive); GI50 (UACC-62): 80.4 µM (inactive) and 76.4 µM (inactive); GI50 (HL-60): 32.2 µM (inactive) and 18.6 µM (inactive); GI50 (NCI-H460): 37.2 µM (inactive) and 31.7 µM (inactive); GI50 (SK-MEL-5): 55.1 µM (inactive)

— ChEMBL document CHEMBL1201862, “PubChem BioAssay data set” (2004)
